Like-named read-outs stand apart in the source and are kept apart here.
Key:
VIM-1 = VIM-1 (Pseudomonas aeruginosa (strain ATCC 15692 / DSM 22644 / CIP 104116 / JCM 14847 / LMG 12228 / 1C / PRS 101 / PAO1), UniProt A0A0F7KYQ8); test: biochemical; settings: CCF2-FA substrate, 30 pM enzyme, 2 hours at 25° C.
How it was run: (§1)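 Inhibitor was mixed with the metallo-β-lactamase and CCF2-FA. After 2 hours at 25° C, fluorescence of the coumarin–fluorescein cephalosporin substrate was read. IC50 was calculated with a 4-parameter fit.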

[1] = test system: Pseudomonas aeruginosa efflux+ (MB9798), IMP-1; assay type: cell-based; settings: concentration restoring susceptibility to imipenem at 2 μg/mL in the presence of a class A, C, D serine β-lactamase inhibitor closely related to relebactam
How it was run: (§2)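 Steps: add fixed imipenem and/or ceftazidime (usually CLSI breakpoint) and fixed AmpC-directed class A/C inhibitor to microbroth MIC wells; titrate MBL inhibitor; record concentration regaining susceptibility for each PAO1-derived strain; divide efflux+ by efflux− value.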

[2] = test system: Pseudomonas aeruginosa MB9798 vs MB9799; settings: ratio MITC95 PA_9798/MITC95 PA_9799
How it was run: as §2

[3] = test system: Pseudomonas aeruginosa efflux− (MB9799), IMP-1; assay type: cell-based; settings: concentration restoring susceptibility to imipenem at 2 μg/mL in the presence of a class A, C, D serine β-lactamase inhibitor closely related to relebactam
How it was run: as §2

NDM-1 = NDM-1 (Klebsiella pneumoniae, UniProt C7C422); test: biochemical; assay type: biochemical; settings: fluorescence assay, CCF2-FA substrate, 1 pM enzyme, 2 hours at 25° C.; read-out: NDM-1 IC50
How it was run: as §1

IMP-1 = IMP-1 (Serratia marcescens, UniProt P52699); test: biochemical; assay type: biochemical; settings: CCF2-FA substrate, 2 pM enzyme, 2 hours at 25° C.
How it was run: as §1

[4] = test system: Klebsiella pneumoniae expressing VIM-1 (IHMA599644); assay type: cell-based; settings: for Klebsiella pneumoniae MITC95: VIM-1 strain IHMA599644, with imipenem 1 μg/ml, 95% inhibition of growth; for Klebsiella pneumoniae expressing VIM-1 (IHMA599644) MITC95: with imipenem 1 μg/ml, 95% inhibition of bacterial growth
How it was run: (§3)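 Colonies grown overnight on blood agar at 35° C were suspended in saline, diluted 1:100 into 1.1×CAMHB and dispensed. Imipenem was added to 1 μg/ml, then test compound. After 22 hours to 24 hours at 35° C, absorbance was recorded.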

[5] = test system: Serratia marcescens expressing IMP-1 (CL5741); assay type: cell-based; settings: for Serratia marcescens MITC95: IMP-1 strain CL5741, with imipenem 1 μg/ml, 95% inhibition of growth; for Serratia marcescens expressing IMP-1 (CL5741) MITC95: with imipenem 1 μg/ml, 95% inhibition of bacterial growth
How it was run: as §3

[6] = test system: Escherichia coli expressing NDM-1 (CLB30005, CLB30016); assay type: cell-based; settings: with imipenem 1 μg/ml; for Escherichia coli MITC95: NDM-1 strain, 95% inhibition of growth; for Escherichia coli expressing NDM-1 (CLB30016) MITC95: 95% inhibition of bacterial growth
How it was run: as §3

[7] = fluorescence assay, read-out: IMP-1 IC50
[8] = fluorescence assay, read-out: VIM-1 IC50

NDM-1, sequence (C7C422 whole entry, looked up, species assumed): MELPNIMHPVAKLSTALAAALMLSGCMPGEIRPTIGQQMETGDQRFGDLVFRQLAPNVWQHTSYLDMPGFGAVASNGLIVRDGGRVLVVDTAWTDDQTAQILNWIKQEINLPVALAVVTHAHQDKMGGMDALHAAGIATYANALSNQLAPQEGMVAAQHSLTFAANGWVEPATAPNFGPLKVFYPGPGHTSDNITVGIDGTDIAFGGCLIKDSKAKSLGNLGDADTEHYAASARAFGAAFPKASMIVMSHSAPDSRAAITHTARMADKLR
IMP-1, sequence (P52699 whole entry, looked up, species assumed): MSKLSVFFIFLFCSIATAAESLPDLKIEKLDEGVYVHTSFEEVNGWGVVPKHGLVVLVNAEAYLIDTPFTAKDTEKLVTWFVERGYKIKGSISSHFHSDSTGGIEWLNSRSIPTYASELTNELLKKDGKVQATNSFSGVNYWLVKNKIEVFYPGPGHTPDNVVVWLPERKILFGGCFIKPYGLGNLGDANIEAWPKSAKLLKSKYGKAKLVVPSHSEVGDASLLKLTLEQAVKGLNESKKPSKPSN

Row | Compound | IC50 (VIM-1; VIM-1 IC50, fluorescence assay) [nM] | P. aeruginosa expressing IMP-1, efflux + (MB9798) MITC95 [1] [µM] | Efflux ratio [2] | P. aeruginosa expressing IMP-1, efflux − (MB9799) MITC95 [3] [µM] | IC50 (NDM-1) [nM] | IC50 (IMP-1; [7]) [nM] | Klebsiella pneumoniae MITC95 [4] [µM] | Serratia marcescens MITC95 [5] [µM] | Escherichia coli MITC95 [6] [µM] | Klebsiella pneumoniae expressing VIM-1 (IHMA599644) MITC95 [4] [µM] | Serratia marcescens expressing IMP-1 (CL5741) MITC95 [5] [µM] | Escherichia coli expressing NDM-1 (CLB30016) MITC95 [6] [µM] | IC50 (VIM-1; [8]) [nM] | IC50 (IMP-1; IMP-1 IC50, fluorescence assay) [nM]
1 | NCC(CN)NS(=O)(=O)c1ccc(-c2cccn3ccnc23)c(-c2nn[nH]n2)c1S(N)(=O)=O [Example 386, N1-(1,3-diaminopropan-2-yl)-4-(imidazo[1,2-c]pyridin-8-yl)-3-(2H-tetrazol-5-yl) benzene-1,2-disulfonamide] | 0.168 | 1.563 | 1.00 | 1.563 | 0.133 | 0.141 | 3.125 | 1.563 | 0.9766 | – | – | – | – | –
2 | Nc1nc2c(-c3ccc(S(=O)(=O)N4CC[C@H](N)C4)c(S(N)(=O)=O)c3-c3nnn[nH]3)cccc2s1 [Example 61, 3-(2-amino-1,3-benzothiazol-4-yl)-6-{[(3S)-3-aminopyrrolidin-1-yl]sulfonyl}-2-(1H-tetrazol-5-yl)benzenesulfonamide] | 1.44 | 1.563 | 1.00 | 1.563 | 0.976 | 1.47 | – | – | – | 3.125 | 3.125 | 3.125 | – | –
3 | Nc1cc(-c2ccc(S(=O)(=O)N[C@@H]3CCNC3)c(S(N)(=O)=O)c2-c2nn[nH]n2)ccn1 [Example 288, (R)-4-(2-aminopyridin-4-yl)-N1-(pyrrolidin-3-yl)-3-(2H-tetrazol-5-yl)benzene-1,2-disulfonamide] | – | 1.563 | 2.00 | 0.7813 | 0.0985 | 0.462 | 1.563 | 1.563 | 0.7813 | – | – | – | 0.0781 | –
4 | Nc1nc2c(-c3ccc(S(=O)(=O)NC[C@@H]4CCNC4)c(S(N)(=O)=O)c3-c3nnn[nH]3)cccc2s1 [Example 75, 4-(2-amino-1,3-benzothiazol-4-yl)-N^1-[(3R)-pyrrolidin-3-ylmethyl]-3-(1H-tetrazol-5-yl)benzene-1,2-disulfonamide] | 0.115 | 0.7813 | 1.00 | 0.7813 | 0.0207 | – | – | – | – | 3.125 | 1.563 | 1.563 | – | 0.158
5 | Nc1nc2c(-c3ccc(S(=O)(=O)N[C@@H]4CN[C@H](CO)C4)c(S(N)(=O)=O)c3-c3nnn[nH]3)cccc2[nH]1 [Example 175, 4-(2-amino-1H-benzo[d]imidazol-4-yl)-N^1-((3S,5S)-5-(hydroxymethyl)pyrrolidin-3-yl)-3-(1H-tetrazol-5-yl)benzene-1,2-disulfonamide] | 0.334 | 0.7813 | 0.50 | 1.563 | 0.127 | 1 | – | – | – | 3.125 | 1.563 | 0.7813 | – | –
6 | NC[C@H](O)CNS(=O)(=O)c1ccc(-c2ccc(N)nc2)c(-c2nn[nH]n2)c1S(N)(=O)=O [Example 309, (S)-N1-(3-amino-2-hydroxypropyl)-4-(6-aminopyridin-3-yl)-3-(2H-tetrazol-5-yl)benzene-1,2-disulfonamide] | 0.2 | 0.7813 | 1.00 | 0.7813 | 0.197 | 0.501 | 1.563 | 0.5208 | 0.2279 | – | – | – | – | –
7 | Nc1nc2c(-c3ccc(S(=O)(=O)NC4CC5CNC4C5)c(S(N)(=O)=O)c3-c3nnn[nH]3)cccc2s1 (stereo not drawn) [Example 88, 4-(2-aminobenzo[d]thiazol-4-yl)-N^1-(2-azabicyclo[2.2.1]heptan-6-yl)-3-(1H-tetrazol-5-yl)benzene-1,2-disulfonamide] | – | 1.563 | 0.50 | 3.125 | 0.0203 | 0.172 | – | – | – | 6.25 | 3.125 | 3.125 | 0.165 | –
8 | NCCCNS(=O)(=O)c1ccc(-c2cccc3[nH]c(N)nc23)c(-c2nn[nH]n2)c1S(N)(=O)=O [Example 182, 4-(2-amino-1H-benzo[d]imidazol-4-yl)-N1-(3-aminopropyl)-3-(2H-tetrazol-5-yl)benzene-1,2-disulfonamide] | 0.0904 | 0.3438 | 0.80 | 0.4271 | 0.0393 | 0.453 | – | – | – | 0.6875 | 0.5573 | 0.2578 | – | –
9 | Nc1nc2c(-c3ccc(S(=O)(=O)N[C@H]4CNC[C@@H]4O)c(S(N)(=O)=O)c3-c3nnn[nH]3)cccc2[nH]1 [Example 169, 4-(2-amino-1H-benzo[d]imidazol-4-yl)-N^1-((3S,4S)-4-hydroxypyrrolidin-3-yl)-3-(1H-tetrazol-5-yl)benzene-1,2-disulfonamide] | 0.581 | 1.563 | 1.00 | 1.563 | 0.137 | 2.08 | – | – | – | 3.125 | 1.563 | 0.7813 | – | –
10 | NC[C@H](N)CNS(=O)(=O)c1ccc(-c2cnc(N)s2)c(-c2nn[nH]n2)c1S(N)(=O)=O [Example 372, (S)-4-(2-aminothiazol-5-yl)-N1-(2,3-diaminopropyl)-3-(2H-tetrazol-5-yl)benzene-1,2-disulfonamide] | – | 1.563 | 2.00 | 0.7813 | 0.575 | 1.27 | 3.125 | 1.563 | 1.563 | – | – | – | 0.914 | –
11 | Nc1nc2c(-c3ccc(S(=O)(=O)N4CCC(N)(CO)C4)c(S(N)(=O)=O)c3-c3nnn[nH]3)cccc2s1 (stereo not drawn) [Example 55, 3-(2-amino-1,3-benzothiazol-4-yl)-6-{[3-amino-3-(hydroxymethyl)pyrrolidin-1-yl]sulfonyl}-2-(1H-tetrazol-5-yl)benzenesulfonamide] | – | 3.125 | 1.00 | 3.125 | 0.51 | 0.86 | – | – | – | 6.25 | 3.125 | 3.125 | 1.46 | –
